Data on 32 molecules can be found in patent US20240246978A1, “PHENYLDIHYDROPYRIMIDINE COMPOUND AND USE THEREOF” (HEPAGENE THERAPEUTICS (HK) LIMITED, priority 2021, published 2024).

The test system of the assay is Hepatitis B virus (HBV). Briefly: In vitro anti-HBV activity by q-PCR assay of HBV DNA in HepG2.2.15 cell supernatant. The class given is cell-based. Here is the method:
Compound preparation and cell culture: The test compounds were prepared as 20 mM storage solution using the appropriate volume of dimethyl sulfoxide (DMSO) (Sigma-D2650) according to the relative molecular weight and mass.
The growth of HepG2.2.15 cells (Wuhan Institute of Virology, Chinese Academy of Sciences) in the culture flasks were observed under a microscope, the cells were digested with trypsin (Invitrogen-25300062), and resuspended with cell culture medium (DMEM/F12, Invitrogen-11330032; containing 2% fetal bovine serum FBS, HyClone-SV30087.03, 100 U/Ml penicillin, Hyclone-SV30010, 100 μg/mL streptomycin, Hyclone-SV30010, 1% non-essential amino acids, Invitrogen-11140-050, 2 mM L-glutamine, Gibco-35050-061); the cells were counted using a Vi-Cell cell counter and the volume and concentration of cell suspension were adjusted according to the number of cell spreads and the number of cells required per well, and the cell spreading density of the 96-well cell culture plates (Costar-3599) was 60,000 cells/well, 100 μL/well; the cell plates with the cells were placed in a 5% CO2, 37° C. incubator and incubated overnight.
The experiments were set at a starting concentration of 100 μM for the test compound and 20 nM for the reference compound entecavir (ETV, WuXi AppTec), with a 3-fold gradient dilution and 9 concentration points. A 96-well V-bottom plate was used, the corresponding test compounds and reference compounds ETV were diluted to obtain 200× compound source plate; a sterile 2 mL deep-well plate was added with 297 μL of cell culture medium, 3 μL of the compounds in the 200× compound source plate were added to the corresponding deep-well plate, diluted by 100-fold, and mixed well with a pipette tip blowing to obtain a 2× compound plate, and then the plate was sealed with parafilm and then stored in a nitrogen cabinet to be used for replacement of the compounds. The cell plate laid out the day before was took and added with 100 μL of diluted 2× compound to each of the corresponding cell wells with a final concentration of 0.5% DMSO. Example of compound distribution in the cell plate is shown below*:
After the cell plates were reintroduced into a 5% CO2, 37° C. cell incubator for 3 days, the medium was removed from the cell culture plates and 100 μL of cell culture solution was replenished to each well. The 200× compound source plate configured was removed from the nitrogen cabinet, a sterile 2 mL deep-well plate was added with 297 μL of cell culture medium, 3 μL of the compounds in the 200× compound source plate was added to the corresponding deep-well plate, diluted by 100-fold, and mixed well with a pipette tip blowing to obtain a 2× compound plate. To the cell wells containing 100 μL of medium, 100 μL of diluted 2× compound was added, with a final concentration of DMSO of 0.5%; the cell plates were reintroduced into 5% CO2 and incubated in a 37° C. cell incubator for 3 days.
The 96-well cell plate was removed from the incubator, centrifuged at 3,000 rpm for 2 min with centrifuge (Beckman, Allegra-X15R), and the cell supernatant was collected for subsequent HBV DNA extraction. 50 μL of cell culture solution were added to each well in the cell plate, then 50 μL of CellTiter-Glo Detection Reagent (Promega-G7573) were added to each well, and the plate was shaken for 10 min away from light to allow the cells to be lysed; the luminescence value of each well was detected by using an enzyme labeller (BioTek Synergy 2).
HBV DNA Extraction: HBV DNA was extracted from cell supernatants using the QIAamp 96 DNA Blood Kit (Qiagen-51162) as described in the kit instructions; the volume of cell supernatant was 150 μL and the final DNA elution volume was 180 μL. […]

[1] abbreviates: Hepatitis B virus, 72 h, HepG2.2.15 cells, inhibition of HBV DNA copies in supernatant by qPCR, compound renewed after 3 days, 3 more days, 0.5% DMSO, read-out: EC50.
[2] abbreviates: Hepatitis B virus, HepG2.2.15, 72 h.
Where [3] appears, read: HepG2.2.15 cells, inhibition of HBV DNA copies in supernatant by qPCR, compound renewed after 3 days, 3 more days, 0.5% DMSO, read-out: EC50.

pEC50: −log10 of the molar value. Like-named read-outs stand apart in the source and are kept apart here.

As to `C#Cc1cc(F)ccc1C1N=C(c2nccs2)NC(CN2CCN3C(=O)N(CC(C)(C)C(=O)O)C[C@@H]3C2)=C1C(=O)OCC` (mixture of isomers) [SZ-023089RAC], the pEC50 under setting [1] is more than 7.30. Regarding `C#Cc1cc(F)ccc1C1N=C(c2nccs2)NC(CN2[C@@H]3C[C@H](CC(=O)O)C[C@H]2C(F)(F)C3)=C1C(=O)OCC` (mixture of isomers) [SZ-023091RAC], the pEC50 under setting [2] is more than 7.30. Turning to `C#Cc1cc(F)ccc1C1N=C(c2nccs2)NC(CN2CCO[C@H](/C=C/C(=O)O)C2)=C1C(=O)OCC` (mixture of isomers) [SZ-023093RAC], under setting [1], the pEC50 was more than 7.30. The same measure, in the same setting: with `C#Cc1cc(F)ccc1C1N=C(c2nccs2)NC(CN2CCO[C@H](CCC(=O)O)C2)=C1C(=O)OCC` (mixture of isomers) [SZ-023095RAC] the figure was 7.00 to 7.30; with `C#Cc1cc(F)ccc1C1N=C(c2nccs2)NC(CN2CCOCC2)=C1C(=O)OCC` (racemic) [SZ-023115RAC], more than 7.30; with `CCOC(=O)C1=C(CN2CCOCC2)NC(c2nccs2)=NC1c1ccc(F)cc1C#N` (racemic) [SZ-023117RAC], 7.00 to 7.30. As to `C#Cc1c(F)cccc1[C@@H]1N=C(c2nccs2)NC(CN2[C@@H]3C[C@H](CC(=O)O)C[C@H]2C(F)(F)C3)=C1C(=O)OCC` [SZ-023085C], under setting [2], the pEC50 was more than 7.30. Turning to `C#Cc1cc(F)ccc1[C@H]1N=C(c2nccs2)NC(CN2CCN3C(=O)N(CC(C)(C)C(=O)O)C[C@@H]3C2)=C1C(=O)OCC` [SZ-023089], under setting [3], the pEC50 is more than 7.30. Regarding `C#Cc1cc(F)ccc1[C@@H]1N=C(c2nccs2)NC(CN2[C@@H]3CC(CC(=O)O)C[C@H]2C(F)(F)C3)=C1C(=O)OCC` (some centres unmarked) [SZ-023091C], under setting [2], the pEC50 is more than 7.30. Consider `C#Cc1cc(F)ccc1[C@H]1N=C(c2nccs2)NC(CN2[C@@H]3CC(CC(=O)O)C[C@H]2C(F)(F)C3)=C1C(=O)OCC` (some centres unmarked) [SZ-023091], for which, under setting [3], the pEC50 was more than 7.30.

For `C#Cc1cc(F)ccc1[C@@H]1N=C(c2nccs2)NC(CN2CCO[C@H](/C=C/C(=O)O)C2)=C1C(=O)OCC` [SZ-023093], under setting [3], the pEC50 is more than 7.30. The same measure, in the same setting: with `C#Cc1cc(F)ccc1[C@H]1N=C(c2nccs2)NC(CN2CCO[C@H](CCC(=O)O)C2)=C1C(=O)OCC` [SZ-023095] the figure was more than 7.30; with `C#Cc1cc(F)ccc1[C@@H]1N=C(c2nccs2)NC(CN2CCOCC2)=C1C(=O)OCC` [SZ-023115-P1], less than 6.00; with `C#Cc1cc(F)ccc1[C@H]1N=C(c2nccs2)NC(CN2CCOCC2)=C1C(=O)OCC` [SZ-023115-P2], more than 7.30. Regarding `C#Cc1c(C2N=C(c3nccs3)NC(CN3CCN4C(=O)N(CC(C)(C)C(=O)O)C[C@@H]4C3)=C2C(=O)OCC)ccc(F)c1F` (some centres unmarked) [SZ-023127], the pEC50 under setting [1] is more than 7.30.

Take `C#Cc1cc(F)c(F)cc1[C@@H]1N=C(c2nccs2)NC(CN2CCN3C(=O)N(CC(C)(C)C(=O)O)C[C@@H]3C2)=C1C(=O)OCC` [SZ-023129]: under setting [1], the pEC50 was 6.00 to 7.00. For the molecule `[2H]C([2H])([2H])C([2H])([2H])OC(=O)C1=C(CN2CCN3C(=O)N(CC(C)(C)C(=O)O)C[C@@H]3C2)NC(c2nccs2)=N[C@H]1c1cccc(F)c1C#C` [SZ-023133], the pEC50 under setting [1] is more than 7.30. As to `[2H]C([2H])([2H])OC(=O)C1=C(CN2CCO[C@H](/C=C/C(=O)O)C2)NC(c2nccs2)=N[C@H]1c1ccc(F)cc1C#C` [SZ-023143], under setting [1], the pEC50 was more than 7.30.

For `C#Cc1cc(F)ccc1[C@@H]1N=C(c2nccs2)NC(CN2CCN3C(=O)N(CC(C)(C)C(=O)O)C[C@@H]3C2)=C1C(=O)OC` [SZ-023145], under setting [1], the pEC50 was more than 7.30. As for `[2H]C([2H])([2H])OC(=O)C1=C(CN2CCN3C(=O)N(CC(C)(C)C(=O)O)C[C@@H]3C2)NC(c2nccs2)=N[C@H]1c1ccc(F)cc1C#C` [SZ-023147], under setting [1], the pEC50 is more than 7.30. Turning to `[2H]C([2H])([2H])C([2H])([2H])OC(=O)C1=C(CN2CCN3C(=O)N(CC(C)(C)C(=O)O)C[C@@H]3C2)NC(c2nccs2)=N[C@H]1c1ccc(F)cc1C#C` [SZ-023149], under setting [1], the pEC50 is more than 7.30. As to `C#Cc1cc(F)ccc1[C@@H]1N=C(c2nccs2)NC(CN2CCN3C(=O)N(CC(C)(C)C(=O)O)C[C@@H]3C2)=C1C(=O)SC` [SZ-023151], the pEC50 under setting [1] is 6.00 to 7.00. As to `C#Cc1cc(F)ccc1[C@@H]1N=C(c2nccs2)NC(CN2CCO[C@H](C3CC3C(=O)O)C2)=C1C(=O)OCC` (some centres unmarked) [SZ-023342], the pEC50 under setting [1] was 7.00 to 7.30.

As for `C#Cc1cc(Cl)ccc1C1N=C(c2nccs2)NC(CN2CCN3C(=O)N(CC(C)(C)C(=O)O)C[C@@H]3C2)=C1C(=O)OCC` (some centres unmarked) [SZ-023366], the pEC50 under setting [1] was more than 7.30. For `C#Cc1cc(C)ccc1C1N=C(c2nccs2)NC(CN2CCN3C(=O)N(CC(C)(C)C(=O)O)C[C@@H]3C2)=C1C(=O)OCC` (some centres unmarked) [SZ-023368], under setting [1], the pEC50 was 6.00 to 7.00.

In the case of `C#Cc1ccccc1C1N=C(c2nccs2)NC(CN2CCN3C(=O)N(CC(C)(C)C(=O)O)C[C@@H]3C2)=C1C(=O)OCC` (some centres unmarked) [SZ-023370], under setting [1], the pEC50 was 7.00 to 7.30. For the molecule `C#Cc1cc(Cl)ccc1C1N=C(c2nccs2)NC(CN2CCN3C(=O)N(c4ccc(CCC(=O)O)cc4)C[C@@H]3C2)=C1C(=O)OCC` (some centres unmarked) [SZ-023380], the pEC50 under setting [1] was more than 7.30. On to `C#Cc1cc(F)ccc1[C@@H]1N=C(c2nccs2)NC(CN2CCN3C(=O)N(c4ccc(CCC(=O)O)cc4)C[C@@H]3C2)=C1C(=O)OCC` [SZ-023384], for which, under setting [1], the pEC50 is more than 7.30.

For the molecule `C#Cc1c(F)cccc1[C@@H]1N=C(c2nccs2)NC(CN2CCN3C(=O)N(c4ccc(CCC(=O)O)cc4)C[C@@H]3C2)=C1C(=O)OCC` [SZ-023386], the pEC50 under setting [1] is more than 7.30. In the case of `C#Cc1cc(F)ccc1[C@@H]1N=C(c2nccs2)NC(CN2CCN3C(=O)N(c4ccc(C(=O)O)c(F)c4)C[C@@H]3C2)=C1C(=O)OCC` [SZ-023388], the pEC50 under setting [1] was more than 7.30. For `C#Cc1c(F)cccc1[C@@H]1N=C(c2nccs2)NC(CN2CCN3C(=O)N(c4ccc(C(=O)O)c(F)c4)C[C@@H]3C2)=C1C(=O)OCC` [SZ-023390], the pEC50 under setting [1] is more than 7.30. On to `C#Cc1cc(F)ccc1[C@@H]1N=C(c2nccs2)NC(CN2CCN3C(=O)N(CC(C)(C)CC(=O)O)C[C@@H]3C2)=C1C(=O)OCC` [SZ-023392], for which the pEC50 under setting [1] was more than 7.30.
